In data set [1] the test system is Human Lung Cancer Cell Line A-549. Description: In-vitro cell cytotoxicity (SRB) assay. It is filed as cell-based. The procedure:
To determine the cytotoxicity potential of the synthesized compounds. All samples were sent to the ACTREC, Tata Memorial Centre, Mumbai, India. They followed the standard protocol for sample analysis of the synthesized compounds. Adriamycin (ADR) was selected as a standard at 10, 20, 40, and 80 µg/mL to screen for indeno [1, 2-d] thiazolo [3,2-a] pyrimidine analogues. GI50 growth inhibition of 50% was calculated using the [(Ti − Tz)/(C − Tz)] ×100% formula, where C, controlled growth; Tz, time zero growth; and Ti, test growth at four concentration levels in the presence of the drug.
LC50 = Concentration of drug causing 50% cell kill
TGI = Concentration of drug causing total inhibition of cell growth
GI50 = Concentration of drug causing 50% inhibition of cell growth

In data set [2] the test system is ethyl-carbamate (EC)- induced LC. The data set can be described thus: In-vivo antineoplastic study, EC-induced lung carcinoma (weight, lipid profile, oxidative markers, histopathology, SEM). More on the design: species or system albino Wistar rats. To be noted: EC-induced LC rats; for Histopathological analysis of lung tissue (H&E): 10 mg/kg for 15 days; for Weight variation (change in body weight): 10 mg/kg for 15 days (9B, 12B p.o.; 5-FU i.p.); for Serum lipid profile (TC, TG, LDL, VLDL, HDL) / Oxidative changes (SOD, GSH, ProC, TBARs): 10 mg/kg p.o. for 15 days; for Oxidative changes (SOD, GSH, ProC, TBARs): lung tissue homogenate. As to the method:
(§1) Six-week-old experimental male albino Wistar rats (100–120 g) were procured from the animal house facility of Babu Banarasi Das Northern India Institute of Technology Lucknow and approved by the Institutional Animal Ethical Committee (CPCSEA No. 809/PO/Re/S/03/CPCSEA) with approval no. BBDNIIT/IAEC/APR/2022/06. The animal welfare protocol and experiments were performed as per the CPCSEA guidelines for laboratory animals and ethics, Department of Animal Welfare, Government of India. They were randomly distributed into five groups of eight animals each. The experimental rats were acclimated under standard research laboratory conditions with free access to standard rat chow and water ad libitum. Group 1 (NC, normal control group): 0.25% CMC (2 mL/kg, p. o.), Group 2 (CC, carcinogen control/EC-exposed group): EC (0.375 mg/kg, four i.p. injections within a gap of three weeks between each dose over twelve weeks period), Group 3 (PC, positive control group): EC + 5-FU (10 mg/kg, i.p. for 15 days after EC induced LC), Group 4 (9B): EC + Compound 9B (10 mg/kg, p.o. for 15 days after EC induced LC), and Group 5 (12B): EC + Compound 12B (10 mg/kg, p.o. for 15 days after the induction of LC). At the end of the treatment, the animals were euthanized by cervical decapitation after anesthesia using a combination of diazepam and ketamine hydrochloride (5 mg/kg, and 100 mg/kg, i.m. respectively). The lung was excised immediately, rinsed in ice-cold saline, and stored at -80 °C for further study. Serum was collected and stored for further analysis.
Change in body weight (gm) was measured on the initial and final day of the experiment, and percent (%) weight gain/loss was calculated.
Serum total cholesterol (TC), triglycerides (TG), and high-density lipoprotein (HDL) levels were measured by using lipid profile kits (Agappe Diagnostic Ltd., Kerala, India). In brief, the assay was performed according to the manufacturer’s instructions. Low-density lipoprotein (LDL) and very-low-density lipoprotein (VLDL) levels were estimated and calculated using Friedewald’s formula [24].
Biochemical parameters such as protein carbonyl (PC), superoxide dismutase (SOD), glutathione (GSH), and thiobarbituric acid reactive substances (TBARs) were estimated in 10% lung tissue homogenate using our previously standardized laboratory protocols.
Histopathological studies were conducted to determine intracellular changes in lung tissue. Tissue samples were stained with H&E (haemotoxyline and eosin) using a methodology established previously at our laboratory for histological analysis and observed under an optical microscope (Steindroff N-120, 40X).
Lung tissue samples of 2–4 mm thickness were sectioned, and the samples were prepared by fixation, washing, post-fixation, and dehydration according to the standardized procedures of our laboratory. Finally, the samples were mounted on aluminium stubs with adhesive tape and examined for morphological changes using SEM (JEOL JSM-6490LV).

The test system of data set [3] is IL-6, STAT-3, Bax, Bcl-2, Cyt-C, Caspase-9, and Caspase-3. The data set can be described thus: Western blot analysis of lung samples of EC-induced LC rats. It is filed as in vivo, albino Wistar rats. To be noted: 10 mg/kg p.o. for 15 days; for Expression of IL-6, STAT-3, and Bcl-2 / Expression of caspases (Caspase-3 and Caspase-9): vs CC group. The procedure: as §1
Protein expression levels of IL-6 (pro-inflammatory), STAT-3 (pro-inflammatory), Bax (pro-apoptotic), Bcl-2 (anti-apoptotic), Cyt-C (pro-apoptotic), Caspase-9, and Caspase-3 (pro-apoptotic/executor caspase) were assessed by immunoblotting. Proteins were electrophoresed on sodium dodecyl sulphate polyacrylamide gel (SDS-PAGE) and probed to detect molecules of interest in the mixture. The membrane was developed with enhanced chemiluminescence ECL, and images were obtained using Chemidoc XRS+ (Bio-rad).
In general terms: In western blotting, separated proteins are transferred to a membrane and probed.

Data set [4] in a line: Pharmacokinetic study in rat plasma using HPLC. It is filed as in vivo, albino Wistar rats. Particulars: 10 mg/kg p.o.; for AUC(0-inf) / Cmax / MRT / Tmax / half-life: Wistar, po; for AUC(0-inf) / Cmax / MRT / Tmax / half-life / AUMC: rat plasma. As to the method: 9B and 12B compounds were orally administered at 10 mg/kg (p.o. dose obtained from acute toxicity studies) to rats, and blood was collected from the latetal tail vein at 0.083, 0.25, 0.5, 1, 2, 4, 8, 12, 16, 24, and 48 h. After collection, blood was centrifuged and plasma was separated, which was kept at -20 °C for further HPLC determination. Chromatographic separations were performed using a Shimadzu Prominence-I LC-2030 Plus equipped with HPLC and a photodiode array (PDA) detector. The mobile phase consisted of a gradient elution of 2:8, water: methanol, and a continuous flow rate of 1 mL/min in an RP-C18 column (5.0 µ particle sizes, 4.6 mm internal diameter, and 250 mm length) with different λmax of 310 and 320 nm, respectively, at 40 °C throughout the experiment. The column was washed using an elution solvent (water: methanol = 50:50) after each run, and the final output was analyzed using WinNonlin version 1.5.3 software.

Data set [5] deals with albino Wistar rats. The data set can be described thus: Acute toxicity study (OECD 423). It is filed as in vivo. Particulars: oral, 15 days, 5, 10, and 15 mg/kg; for Toxic effect: histology of lung, liver, kidney. The procedure:
It is necessary to investigate the safety and efficacy of the synthesized compounds in vivo, which was performed as per the guidelines of the Organization for Economic Cooperation and Development guidelines 423 (OECD 423). The synthesized compounds were orally administered at doses of 5, 10, and 15 mg/kg body weight to albino Wistar rats for 15 days (n = 5), and the animals were observed every day for any toxic signs at various doses. Morphological and oxidative stress parameters were used to determine dose-related toxicity.

Data set [6] relates to IL-2, IL-6, IL-10, and IL-1β. The data set can be described thus: Cytokine estimation (ELISA) in EC-induced LC rats. It is filed as in vivo, albino Wistar rats. Particulars: 10 mg/kg p.o. for 15 days, vs CC group. The procedure:
as §1, with “The lung was excised immediately, rinsed in ice-cold saline, and stored at -80 °C for further study. Serum was collected and stored for further analysis.” left out

Setting [7] is: Homo sapiens, A549 cell line, unit inferred, read-out: GI50 value.

Like-named read-outs stand apart in the source and are kept apart here.

Consider `COc1cccc2c1C(=O)c1c(O)c3c(c(O)c1C2=O)C[C@@](O)(C(=O)CO)C[C@@H]3O[C@H]1C[C@H](N)[C@H](O)[C@H](C)O1` [ADR, Adriamycin, reference compound], for which the “TGI (concentration of drug causing total inhibition of cell growth)” value in data set [1] (A-549 cells, SRB assay) was below 10 µg/mL. Besides, in data set [1] (Homo sapiens, A549, A-549 cells, SRB assay, read-out: GI50 (concentration of drug causing 50% inhibition of cell growth)), the GI50 was below 10 µg/mL.
In the case of `O=c1[nH]cc(F)c(=O)[nH]1` [Compound 5-FU, 5-Fluorouracil, reference compound], in data set [2], the “Histopathological analysis of lung tissue (H&E)” value (shortened to “Histopathological analysis”) is “histopathological recovery of lung tissue architectures” and the “Weight variation (change in body weight)” value was 7.21 ± 1.75 gm.
On to `COc1ccc2c(c1)CC1=C2N=C2SC=CN2C1c1cc(OC)c(OC)c(OC)c1` (stereo not drawn) [Compound 9B, 8-methoxy-5-(3,4,5-trimethoxyphenyl)-5,6-dihydroindeno[1,2-d]thiazolo[3,2-a]pyrimidine], for which, in data set [3], the “Expression of IL-6, STAT-3, and Bcl-2” value is recorded as “decreased”; the “Expression of caspases (Caspase-3 and Caspase-9)” value is on record as “increased”. Further, in data set [4], the AUC(0-inf) turned out to be 288 µg·h/mL, the concentration peaked (Cmax) at 30800 ± 1590 ng/mL, the MRT amounted to 10.6 ± 0.99 h and the Tmax stood at 4 h. For the same compound, in data set [4], the half-life is 477 min and the AUMC worked out at 3028.82 µg.h^2/ mL. Further, in data set [2], the “Histopathological analysis” value was “histopathological recovery of lung tissue architectures”; the “Weight variation (change in body weight)” value was found to be 6.01 ± 1.08 gm; the “Serum lipid profile (TC, TG, LDL, VLDL, HDL)” value is reported as “restored the alteration of the lipid profile”; the “Oxidative changes (SOD, GSH, ProC, TBARs)” value was “restoring the altered levels of SOD, GSH, ProC, and TBARs”. Also, in data set [5], the “Antioxidant markers SOD, CAT, GSH, and TBARs values” is recorded as “no change”; the Toxic effect result is “no toxic effect”. Further, the “Levels of cytokine IL-1β, IL-2, IL-6, and IL-10” value in data set [6] is “significantly decreased”. The LC50 in data set [1] (Homo sapiens, A549, A-549 cells, SRB assay, read-out: LC50 (concentration of drug causing 50% cell kill)) was above 80 µg/mL. Moreover, the GI50 in data set [1] (setting [7]) was below 20 µg/mL.
As for `Clc1ccc(C2C3=C(N=C4SC=CN42)c2ccccc2C3)cc1` (stereo not drawn) [Compound 12B, 5-(4-chlorophenyl)-5,6-dihydroindeno[1,2-d]thiazolo[3,2-a]pyrimidine], in data set [3] (12B compared with 9B), the “Expression of Bax and Cyt-C” value is “higher expression with 12B treatment than with 9B treatment”. Moreover, in data set [3], the “Expression of IL-6, STAT-3, and Bcl-2” value is recorded as “decreased”; the “Expression of caspases (Caspase-3 and Caspase-9)” value was “increased”. Further, in data set [4], the total exposure AUC(0-inf) was 436 ± 8.59 µg·h/mL, the Cmax turned out to be 40200 ± 2060 ng/mL, the MRT worked out at 10.4 ± 1.08 h and the Tmax amounted to 4 h. In data set [4], the half-life was 689 min and the AUMC amounted to 4557.60 µg.h^2/ mL. Also, in data set [4] (rat, compared with 9B), the “Biological availability (in words)” value was “good biological availability as compared to 9B”. In addition, in data set [2], the “Histopathological analysis” value was “histopathological recovery of lung tissue architectures”; the “Weight variation (change in body weight)” value was found to be 17.52 ± 1.33 gm; the “Serum lipid profile (TC, TG, LDL, VLDL, HDL)” value is “restored the alteration of the lipid profile”; the “Oxidative changes (SOD, GSH, ProC, TBARs)” value is “restoring the altered levels of SOD, GSH, ProC, and TBARs”. Further, in data set [5], the “Antioxidant markers SOD, CAT, GSH, and TBARs values” is reported as “no change”; the Toxic effect entry is “no toxic effect”. The “Levels of cytokine IL-1β, IL-2, IL-6, and IL-10” value in data set [6] is reported as “significantly decreased”. The GI50 in data set [1] (setting [7]) was below 10 µg/mL.

One may read the AUC(0-inf) as total exposure, with the tail of the curve extrapolated. Higher therefore signals more exposure. For orientation: Cmax means the peak of the concentration-time curve. As a reminder, the MRT is the average time that molecules of a dose stay in the body. The term Tmax denotes the time from dosing to the highest level. The term half-life denotes how long it takes for the measured level to halve. Read a high half-life as slow decline.

Values taken from article PMC11201866, “Antiproliferative effect of indeno[1,2-d]thiazolo[3,2-a]pyrimidine analogues on IL-6 mediated STAT3 and role of the apoptotic pathway in albino Wistar rats of ethyl carbamate-induced lung carcinoma: In-silico, In-vitro, and In-vivo study” (Cancer Cell International, 2024).
